Assay results: PMC10673250, “Exploring Alkyl Ester Salts of L-Amino Acid Derivatives of Ibuprofen: Physicochemical Characterization and Transdermal Potential” (Molecules, 2023)
Converted amounts (≈) assume the structure as drawn. “And” between values parts separate entries of the source, which are not always exact repeats. Equal entries are not always repeated. Structures can show the parent of a compound that is named as a salt. Where two headings read alike, the source gives them in different places.

Tests used:
[1] = pig skin, concentration 0.01 g·cm^−3; cited from earlier work
[2] = Permeability of the active substance through pig skin, Franz diffusion chambers, in vitro; conditions: for Jss, steady-state flux: 1% IBU in 70% ethanol, 37 °C; for Jss, steady-state flux / Q%24h, the percentage of the applied dose / LT, lag time / CMP (cumulative permeation mass): n = 3; for Q%24h, the percentage of the applied dose / CMP (cumulative permeation mass): 24 h
Method: Tests for the penetration of the active substance through pig skin were performed using Franz diffusion chambers (Phoenix DB-6, ABL&E-JASCO, Vienna, Austria) with diffusion areas of 1 cm^2 according to the modified method [15].
Pig skin obtained from the belly was purchased from a local slaughterhouse. The outer layer, 0.5 mm thick, was then removed using a dermatome and cut into 2 cm × 2 cm pieces. Before use in the study, the skin was soaked in buffered saline (PBS) solution at pH 7.4.
Skin impedance assessment was performed using an LCR meter 4080 (Voltcraft LCR 4080, Conrad Electronic, Hirschau, Germany), which was operated in parallel mode at an alternating frequency of 120 Hz (error for kΩ values < 0.5%). The measurements were made by placing the tips of the measurement probes in the donor and acceptor chambers, separated by a skin sample. Both chambers were filled with PBS buffer pH 7.4. Skin samples with an impedance > 3 kΩ were used for testing, which corresponds to the electrical resistance of human skin [15, 18].
The acceptor chamber with a capacity of 10 cm^3 was filled with PBS solution (pH 7.4). A total of 1 cm^3 of a solution of ibuprofen or L-amino acid alkyl ester ibuprofenate with a concentration of 1% based on the active substance (ibuprofen) in 70% ethanol was placed in the acceptor chamber.
The experiment was conducted for 24 h at 37 °C. After 0.5 h, 1 h, 2 h, 3 h, 4 h, 5 h, 8 h, and 24 h from the start of the permeation experiment, 0.5 cm^3 samples of the acceptor fluid were taken, respectively, and refilled with fresh PBS solution. The content of ibuprofen or its salts in the acceptor liquid was determined by HPLC. Based on this concentration, the cumulative mass expressed as ibuprofen was calculated (µg IBU·cm^−2) [3, 19, 20, 21, 22].
The constant flow coefficient (in µg IBU·cm^−2·h^−1) through the pig skin into the acceptor fluid was determined as the slope of the plot of accumulated mass in the acceptor fluid as a function of time.
Steady-state flow was estimated from the slope of the linear part of the plot of accumulated mass in the acceptor phase over time. The lag time (LT) was determined based on the x-intercept of the linear part of the graph of accumulated mass in the acceptor phase over time. It was then used to calculate the permeability coefficient Kp using Equation (6):(6) Kp=Jss/C where: • C—concentration in the donor phase (µg·cm^−3).
The diffusion coefficient (D) was calculated based on Equation (7):(7) D=I^2/6·LT where: • I—diffusion path, skin thickness (mm).
The skin partition coefficient (Km) was calculated based on Equation (8):(8) Km=Kp·I/D

[3] = Partition coefficient n-octanol/water (shake-flask, HPLC); type: physicochemical; conditions: 25 °C
Method: For L-glutamic acid alkyl ester ibuprofenates, the partition coefficient was determined using n-octanol/water extraction. For this purpose, 10 mg of the substance, weighed with an accuracy of 0.01 mg, was mixed with 5 cm^3 of water saturated with n-octanol and 5 cm^3 of n-octanol saturated with water. The mixture was stirred vigorously at 25 °C for 3 h and then centrifuged at 7500 rpm·min^−1 at 25 °C for 10 min to separate the phases. The phases were then separated. The concentration of the compound was determined in the aqueous layer using the HPLC method (standard curve method).
The partition coefficient log P was calculated based on Equation (3):(3) logP=logcoct−logcw where: • cw and coct are the concentrations (mg·dm^−3) of the solute in the aqueous and octanol layers.
The concentration of the compound dissolved in octanol was calculated from Equation (4):(4) coct=c0−cw where: • c0 is the concentration of the compound calculated based on sample weights prepared for analysis.
The concentration of the substance in the aqueous layer was determined using the SHIMADZU Nexera-i LC-2040C 3D High Plus high-performance liquid chromatography method with a DAD/FLD detector. A mixture of 50% acetonitrile and 50% water was used as the moving fluid under isocratic conditions at a 1 cm^3·min^−1 flow rate. A Kinetex® 2.6 µm F5 100 Å column heated to 35 °C with dimensions of 150 × 4.6 mm^2 from Phenomenex was used. The spectra were recorded at a wavelength of 210 nm. The injection volume for these samples was 50 mm^3. Each measurement was performed three times, and the results were averaged. The concentration of ibuprofen and its salts was calculated from peak area measurements using the calibration curve method (Figure 8). The results were analyzed using LabSolutions/LC Solution System.

[4] = Solubility in water (saturated solutions, HPLC); type: physicochemical; conditions: water at 25 °C
Method: Water solubility was determined by obtaining saturated solutions of the obtained ibuprofenates. For this purpose, the appropriate amount of ibuprofen salt was weighed in a vial, poured with deionized water, and stirred vigorously on a magnetic stirrer at 25 °C for 24 h. After this time, the mixture was filtered using a syringe filter made of MCE (mixed cellulose esters) with a pore diameter 0.45 µm. Then, the filtrate was diluted one hundred times with acetonitrile: water solution (1:1). The concentration of the compound was determined by the HPLC method described in Section 3.2.9.

[5] = Accumulation in the skin after the permeation test, in vitro; type: in vitro ADME, pig; conditions: after 24 h permeation; for accumulation in pig skin: mean ± SD, n = 3
Method: After completing the permeation test, the skin was removed from the Franz chamber, then washed with 0.5% sodium lauryl sulfate solution and dried with a paper towel. After being thoroughly air-dried, the leather was cut into pieces and extracted with 2 cm^3 of methanol for 24 h at 4 °C. Then, the samples were homogenized using a homogenizer (IKA®T18 digital ULTRA TURRAX, Staufen, Germany) for 3 min and centrifuged at 3500 rpm·min^−1 for 5 min. After centrifugation, the solution was analyzed by HPLC. The accumulation of IBU and its salts in pig skin was calculated by dividing the amount of substance remaining in the samples by the weight of the skin sample and it was expressed as the weight of IBU per gram of skin (µg IBU·g^−1).

[6] = administered on an empty stomach, 71 healthy adults; cited from earlier work
[7] = Thermogravimetric analysis (thermal stability); type: physicochemical
Method: Thermal stability was assessed using thermogravimetric studies performed on a […]1 Libra thermomicrobalance (Selb, Germany). The test was carried out in an oxidizing environment, with the flow of nitrogen (protective gas): 10 cm^3·min^-1, air: 25 cm^3·min^-1 in the temperature range from 25 to 1000 °C. Samples weighing approximately 5 mg were heated at 10 °C·min^-1. The decomposition onset temperature (Tonset) was calculated using the intersection of the tangents of the TG curve. The fastest decomposition temperatures (Tmax) were calculated using the first TG curve (DTG curve) derivative.

[8] = in terms of the active substance (ibuprofen)
[9] = TG, oxidizing environment, 10 °C·min^−1

CC(C)Cc1ccc(C(C)C(=O)O)cc1 (racemic) [IBU, (RS)-2-[4-(2-methylpropyl)phenyl]propionic acid, reference compound]
skin penetration rate [1]: 6% | Jss, steady-state flux [2]: 26.539 ± 0.320 µg IBU·cm^−2·h^−1 | Q%24h, the percentage of the applied dose [2]: 0.302 ± 0.038% | LT, lag time [2]: 0.153 ± 0.029 h | D·10^4, diffusion coefficient ([2]; n = 3, value is D·10^4): 27.926 ± 5.802 cm^2·h^−1 | logP [3]: 3.37 | solubility at 24 h ([4]; deionized water, as compound): 75 ± 1 µg/mL (≈ 364 µM) | Solubility in Water [4, 8]: 0.075 ± 0.001 g IBU·dm^−3 | accumulation in pig skin [5]: 1057.468 ± 200.589 µg IBU·g^−1 pig skin

CC(C)Cc1ccc(C(C)C(=O)[O-])cc1.[Na+] (stereo not drawn) [IBUNa]
Cmax higher compared to rac-IBU [6]: approximately 30%

CCCCOC(=O)CCC(N)C(=O)OCCCC (stereo not drawn) [[Glu(OBu)2][HCl]]
Tonset, the onset temperature of the thermal degradation [7, 9]: 172.8 °C

CC(C)Cc1ccc(C(C)C(=O)O)cc1.CCCCOC(=O)C(N)CCC(=O)O (stereo not drawn) [[Glu(OBu)][IBU]]
Tonset, the onset temperature of the thermal degradation [7]: 206.8 °C | Jss, steady-state flux [2]: 32.282 ± 7.809 µg IBU·cm^−2·h^−1 | CMP (cumulative permeation mass) [2]: 0.109 ± 0.004 g IBU·dm^−3 | Q%24h, the percentage of the applied dose [2]: 0.452 ± 0.026% | LT, lag time [2]: 0.102 ± 0.069 h | log P [3]: 3.000 ± 0.010 | Solubility in Water ([4]; as compound): 0.217 ± 0.007 g·dm^−3 | Solubility in Water [4, 8]: 0.109 ± 0.004 g IBU·dm^−3 | accumulated mass relative to ibuprofen [5]: approximately 90% | accumulation in pig skin [5]: 931.823 ± 93.449 µg IBU·g^−1 pig skin

CCOC(=O)CCC(N)C(=O)OCC (stereo not drawn) [[Glu(OEt)2][HCl]]
Tonset, the onset temperature of the thermal degradation [7, 9]: 168.3 °C

CC(C)Cc1ccc(C(C)C(=O)O)cc1.CCOC(=O)C(N)CCC(=O)O (stereo not drawn) [[Glu(OEt)][IBU]]
Tonset, the onset temperature of the thermal degradation [7]: 194.2 °C | Jss, steady-state flux [2]: 30.855 ± 6.617 µg IBU·cm^−2·h^−1 | CMP (cumulative permeation mass) [2]: 0.100 ± 0.001 g IBU·dm^−3 | Q%24h, the percentage of the applied dose [2]: 0.566 ± 0.005% | permeation rate difference compared to [Glu(OPent)][IBU] ([2]; after 24 h): approximately 0.5 μg∙h^−1 | LT, lag time [2]: 0.029 ± 0.050 h | log P [3]: 2.37 and 2.374 ± 0.001 | Solubility in Water ([4]; as compound): 0.185 ± 0.003 g·dm^−3 | Solubility in Water [4, 8]: 0.100 ± 0.001 g IBU·dm^−3

CCCCCOC(=O)CCC(N)C(=O)OCCCCC (stereo not drawn) [[Glu(OPent)2][HCl]]
Tonset, the onset temperature of the thermal degradation [7, 9]: 169.5 °C

CC(C)Cc1ccc(C(C)C(=O)O)cc1.CCCCCOC(=O)C(N)CCC(=O)O (stereo not drawn) [[Glu(OPent)][IBU]]
Tonset, the onset temperature of the thermal degradation [7]: 206.9 °C | Jss, steady-state flux [2]: 57.098 µg IBU·cm^−2·h^−1 and 57.098 ± 29.761 µg IBU·cm^−2·h^−1 | CMP (cumulative permeation mass) [2]: 0.101 ± 0.012 g IBU·dm^−3 | Q%24h, the percentage of the applied dose [2]: 0.582 ± 0.047% | permeation rate relative to ibuprofen ([2]; within the first two hours): twice as high as ibuprofen | log P [3]: 2.459 ± 0.002 | Solubility in Water ([4]; as compound): 0.208 ± 0.024 g·dm^−3 | Solubility in Water [4, 8]: 0.101 ± 0.012 g IBU·dm^−3 | accumulation in pig skin [5]: 625.895 ± 87.275 µg IBU·g^−1 pig skin

CC(C)Cc1ccc(C(C)C(=O)O)cc1.CCCOC(=O)C(N)CCC(=O)O (stereo not drawn) [[Glu(OPr)][IBU]]
Tonset, the onset temperature of the thermal degradation [7]: 199.7 °C | Jss, steady-state flux [2]: 26.451 ± 2.253 µg IBU·cm^−2·h^−1 | CMP (cumulative permeation mass) [2]: 0.120 ± 0.004 g IBU·dm^−3 | Q%24h, the percentage of the applied dose [2]: 0.506 ± 0.008% | log P [3]: 2.380 ± 0.003 | Solubility in Water ([4]; as compound): 0.230 ± 0.007 g·dm^−3 | Solubility in Water [4, 8]: 0.120 ± 0.004 g IBU·dm^−3

CC(C)OC(=O)CCC(N)C(=O)OC(C)C (stereo not drawn) [[Glu(OiPr)2][HCl]]
Tonset, the onset temperature of the thermal degradation [7, 9]: 174.4 °C

CC(C)Cc1ccc(C(C)C(=O)O)cc1.CC(C)OC(=O)C(N)CCC(=O)O (stereo not drawn) [[Glu(OiPr)][IBU]]
Tonset, the onset temperature of the thermal degradation [7]: 222.9 °C | Jss, steady-state flux [2]: 23.298 ± 3.459 µg IBU·cm^−2·h^−1 | Q%24h, the percentage of the applied dose [2]: 0.373 ± 0.0175% | penetrated better than ibuprofen ([2]; versus ibuprofen): ~40% | log P [3]: 2.860 ± 0.007 | solubility relative to ibuprofen (standard) ([4]; per active mass of ibuprofen): approximately three times higher | Solubility in Water ([4]; as compound): 0.390 ± 0.011 g·dm^−3 | Solubility in Water [4, 8]: 0.203 ± 0.006 g IBU·dm^−3

CCCOC(=O)CCC(N)C(=O)OCCC (stereo not drawn) [[Glu(Opr)2][HCl]]
Tonset, the onset temperature of the thermal degradation [7, 9]: 170.5 °C

CCC(C)OC(=O)CCC(N)C(=O)OC(C)CC (stereo not drawn) [[Glu(Osec-Bu)2][HCl]]
Tonset, the onset temperature of the thermal degradation [7, 9]: 181.5 °C

CC(C)Cc1ccc(C(C)C(=O)O)cc1.CCC(C)OC(=O)C(N)CCC(=O)O (stereo not drawn) [[Glu(Osec-Bu)][IBU]]
Tonset, the onset temperature of the thermal degradation [7]: 204.2 °C | Jss, steady-state flux [2]: 22.296 ± 1.398 µg IBU·cm^−2·h^−1 | CMP (cumulative permeation mass) [2]: 0.093 ± 0.012 g IBU·dm^−3 | Q%24h, the percentage of the applied dose [2]: 0.456 ± 0.048% | log P [3]: 3.191 ± 0.007 | Solubility in Water ([4]; as compound): 0.185 ± 0.024 g·dm^−3 | Solubility in Water [4, 8]: 0.093 ± 0.012 g IBU·dm^−3
